Source: PMC5656517 (European journal of pharmaceutical sciences : official …, 2017)
In brackets after ≈: the same amount, converted by molar mass. Like-named read-outs stand apart in the source and are kept apart here.

Experiments:
[1] = target: T1, CYP1A2 (Homo sapiens, UniProt P05177); details: ref He et al. (2015); cited from earlier work
T1 sequence (P05177 1-516): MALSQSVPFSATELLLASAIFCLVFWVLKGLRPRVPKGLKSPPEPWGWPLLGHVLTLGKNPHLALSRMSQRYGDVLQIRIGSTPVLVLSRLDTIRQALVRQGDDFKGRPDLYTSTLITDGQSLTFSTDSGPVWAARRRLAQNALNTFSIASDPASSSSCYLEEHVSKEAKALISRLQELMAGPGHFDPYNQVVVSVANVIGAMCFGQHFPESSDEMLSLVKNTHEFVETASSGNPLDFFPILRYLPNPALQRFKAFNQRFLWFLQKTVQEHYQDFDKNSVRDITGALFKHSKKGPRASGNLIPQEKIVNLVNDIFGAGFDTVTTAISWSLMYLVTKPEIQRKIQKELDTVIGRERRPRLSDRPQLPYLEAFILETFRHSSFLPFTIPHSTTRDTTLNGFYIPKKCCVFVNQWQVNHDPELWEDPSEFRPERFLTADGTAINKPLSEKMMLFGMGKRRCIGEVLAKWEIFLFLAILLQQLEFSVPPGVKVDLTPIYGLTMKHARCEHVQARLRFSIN

[2] = target: T2, CYP2C9 (Homo sapiens, UniProt P11712); assay: Single concentration; details: human liver microsomes
T2 sequence (P11712 whole entry): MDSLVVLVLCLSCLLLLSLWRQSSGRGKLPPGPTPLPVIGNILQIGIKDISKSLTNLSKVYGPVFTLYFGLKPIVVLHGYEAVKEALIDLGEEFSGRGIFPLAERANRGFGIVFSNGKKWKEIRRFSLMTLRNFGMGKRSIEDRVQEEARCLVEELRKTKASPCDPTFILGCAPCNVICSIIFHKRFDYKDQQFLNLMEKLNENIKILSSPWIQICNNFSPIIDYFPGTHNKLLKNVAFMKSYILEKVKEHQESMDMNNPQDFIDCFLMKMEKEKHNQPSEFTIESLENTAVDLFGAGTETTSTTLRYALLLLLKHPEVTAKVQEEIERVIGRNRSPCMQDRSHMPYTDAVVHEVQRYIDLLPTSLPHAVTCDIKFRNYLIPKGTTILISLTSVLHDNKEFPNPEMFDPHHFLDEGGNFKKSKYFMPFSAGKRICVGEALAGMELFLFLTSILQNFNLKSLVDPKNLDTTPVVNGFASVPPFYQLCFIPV

[3] = target: T2, CYP2C9; assay: Cocktail assay IC50 determination in human liver microsomes
[4] = target: T3, CYP3A4 (Homo sapiens, UniProt P08684); type: in vitro ADME; details: recombinant human CYP3A4, 20 µM
T3 sequence (P08684 2-503 limits assumed): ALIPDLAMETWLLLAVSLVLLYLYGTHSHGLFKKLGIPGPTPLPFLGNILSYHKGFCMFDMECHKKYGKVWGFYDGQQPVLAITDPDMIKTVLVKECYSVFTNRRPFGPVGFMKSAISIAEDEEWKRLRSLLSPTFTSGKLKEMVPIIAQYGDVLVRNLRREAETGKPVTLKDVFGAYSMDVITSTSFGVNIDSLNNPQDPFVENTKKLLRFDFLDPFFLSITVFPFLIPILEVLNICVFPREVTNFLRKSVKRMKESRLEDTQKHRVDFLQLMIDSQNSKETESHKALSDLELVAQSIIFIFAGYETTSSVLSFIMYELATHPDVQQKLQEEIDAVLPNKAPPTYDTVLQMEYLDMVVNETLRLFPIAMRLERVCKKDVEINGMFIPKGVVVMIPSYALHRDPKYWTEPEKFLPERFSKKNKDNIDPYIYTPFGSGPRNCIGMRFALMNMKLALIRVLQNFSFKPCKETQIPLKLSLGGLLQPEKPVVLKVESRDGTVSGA

[5] = target: T4, CYP2B6 (Homo sapiens, UniProt P20813); assay: Cocktail assay IC50 determination in human liver microsomes; details: substrate bupropion, mean ± standard deviation
T4 sequence (P20813 1-491): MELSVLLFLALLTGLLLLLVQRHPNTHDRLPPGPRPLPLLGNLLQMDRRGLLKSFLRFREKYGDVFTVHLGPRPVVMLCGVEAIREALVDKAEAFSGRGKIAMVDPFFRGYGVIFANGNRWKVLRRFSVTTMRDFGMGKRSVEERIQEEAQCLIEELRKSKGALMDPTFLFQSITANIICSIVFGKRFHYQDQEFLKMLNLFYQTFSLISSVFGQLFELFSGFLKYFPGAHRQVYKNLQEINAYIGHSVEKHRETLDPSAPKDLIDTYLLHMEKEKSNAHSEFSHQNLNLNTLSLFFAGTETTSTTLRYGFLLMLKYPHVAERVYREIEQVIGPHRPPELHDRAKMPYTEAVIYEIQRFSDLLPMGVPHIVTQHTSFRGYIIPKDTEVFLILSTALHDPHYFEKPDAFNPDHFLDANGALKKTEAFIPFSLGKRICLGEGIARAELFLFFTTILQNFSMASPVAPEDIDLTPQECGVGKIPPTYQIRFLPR

[6] = target: CYP3A4 (midazolam) (Homo sapiens, UniProt P08684); assay: KI and kinact determination in human liver microsomes; type: in vitro ADME
Chain of CYP3A4 (midazolam) (P08684 whole entry): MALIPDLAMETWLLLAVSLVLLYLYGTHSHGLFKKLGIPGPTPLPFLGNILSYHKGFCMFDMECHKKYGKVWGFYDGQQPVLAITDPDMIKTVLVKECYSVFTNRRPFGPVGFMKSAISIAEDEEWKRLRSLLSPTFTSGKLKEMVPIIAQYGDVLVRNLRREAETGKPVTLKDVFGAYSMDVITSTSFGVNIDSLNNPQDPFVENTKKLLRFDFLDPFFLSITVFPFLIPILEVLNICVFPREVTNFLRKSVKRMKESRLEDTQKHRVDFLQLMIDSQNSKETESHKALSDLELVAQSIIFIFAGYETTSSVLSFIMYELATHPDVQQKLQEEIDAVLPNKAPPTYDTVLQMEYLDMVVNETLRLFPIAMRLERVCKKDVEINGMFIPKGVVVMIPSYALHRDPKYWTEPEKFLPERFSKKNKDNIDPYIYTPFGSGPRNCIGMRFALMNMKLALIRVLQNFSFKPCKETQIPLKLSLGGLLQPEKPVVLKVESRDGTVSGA

[7] = target: T5, CYP2C8 (Homo sapiens, UniProt P10632); assay: Single concentration; details: human liver microsomes
T5 sequence (P10632 1-490): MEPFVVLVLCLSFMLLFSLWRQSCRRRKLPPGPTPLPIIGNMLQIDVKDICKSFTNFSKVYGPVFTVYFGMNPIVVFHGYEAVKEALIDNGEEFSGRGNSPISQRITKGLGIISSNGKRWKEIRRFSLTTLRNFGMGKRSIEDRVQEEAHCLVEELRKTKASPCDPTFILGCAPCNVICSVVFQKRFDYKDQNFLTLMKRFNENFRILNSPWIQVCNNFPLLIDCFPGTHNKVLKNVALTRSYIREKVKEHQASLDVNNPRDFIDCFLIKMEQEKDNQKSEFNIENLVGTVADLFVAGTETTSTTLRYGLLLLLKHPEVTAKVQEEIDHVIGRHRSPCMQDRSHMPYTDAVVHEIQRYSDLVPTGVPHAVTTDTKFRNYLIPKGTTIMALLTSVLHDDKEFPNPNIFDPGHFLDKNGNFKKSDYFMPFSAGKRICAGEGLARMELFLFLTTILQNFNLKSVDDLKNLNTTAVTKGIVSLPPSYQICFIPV

[8] = target: T3, CYP3A4; assay: KI and kinact determination with recombinant CYP3A4; type: in vitro ADME

SMILES: C=CC(C)(C)c1cc(/C=C/C(=O)c2ccc(O)cc2)c(OC)cc1O [Licochalcone A, licochalcone A]
- inhibition of CYP1A2, in words [1]: strongly inhibited
- inhibition of CYP2C9 at 10 µM, in words [2]: strongly inhibited
- IC50, CYP2C9 ([3]; lower end of the range of IC50 values): high nM levels
- IC50, CYP2C9 ([3]; substrate tolbutamide, mean ± standard deviation): 0.78 ± 0.09 µg/mL (≈ 2.3 µM)
- % Control activity ([4]; NADPH, 2 mM glutathione): 32.4%
- % Control activity ([4]; NADPH, 1000 U/mL catalase): 38.8%
- % Control activity ([4]; NADPH, 1000 U/mL superoxide dismutase): 28.1%
- % Control activity ([4]; NADPH, mean of two experiments): 42.0%
- % Control activity ([4]; without NADPH, mean of two experiments): 100%
- IC50, CYP2B6 [5]: 17.96 ± 4.58 µg/mL (≈ 53.1 µM)
- Efficiency of inactivation ([6]; human liver microsomes): 0.0033 µM⁻¹ min⁻¹
- kinact for inactivation of CYP3A4 (midazolam) ([6]; human liver microsomes): 0.38 min⁻¹
- type of CYP3A4 inhibition, conclusion in words ([6]; human liver microsomes and recombinant CYP3A4): mechanism based inhibitor
- KI (inactivation) ([6]; read-out: KI for inactivation of CYP3A4 (midazolam), human liver microsomes): 116 µM
- inhibition of CYP2C8 at 10 µM, in words [7]: strongly inhibited
- KI (inactivation) ([8]; read-out: KI for inactivation of CYP3A4 (midazolam), recombinant human CYP3A4): 2.22 µM
- Efficiency of inactivation ([8]; recombinant CYP3A4): 0.021 µM⁻¹ min⁻¹
- kinact for inactivation of CYP3A4 (midazolam) ([8]; recombinant human CYP3A4): 0.047 min⁻¹
